Data set [1] concerns locomotor activity of male CD-1 mice. As to the kind of experiment: Spontaneous locomotor activity (sLMA) test, Example 8. In kind it is in vivo, mouse. As to the method:
The spontaneous locomotor activity (sLMA) test is a validated model for evaluating the potential effects of a compound on motor function. This study evaluated the effect of Compound 1 on locomotor activity of male CD-1 mice. Doses of Compound 1 used were 3 mg/kg, 5.6 mg/kg, 10 mg/kg and 20 mg/kg administered orally (p.o.).
Male CD-1 mice (Vital River, Beijing, China) approximately 6 weeks old were used for the study. Body weights were between 25 g and 35 g at the time of experiment.
Treatment was conducted using Compound 1 and 35% 2-hydroxypropyl-β-cyclodextrin (35% HPBCD, used as a negative control). Compound 1 stock solution was prepared fresh each experiment day in 35% HPBCD and protected from light. The stock solution was diluted with vehicle for lower doses.
The spontaneous locomotor activity (sLMA) test for each study was carried out over three days, with mice from each treatment group tested each day. The treatment groups included mice dosed with vehicle (35% HPBCD) and with Compound 1 at the dose of 3 mg/kg, 5.6 mg/kg, 10 mg/kg and 20 mg/kg. Mice were randomly assigned into one of the treatment groups.
A single dose of Compound 1 (3 mg/kg, 5.6 mg/kg, 10 mg/kg and 20 mg/kg) or vehicle (35% HPBCD) was administered to mice via oral gavage 30 minutes prior to testing. Immediately prior to conducting the sLMA test, a brief neurological assessment was performed. Each animal was visually assessed for sedation and ataxia.
Activity was recorded by overhead cameras and was analyzed offline. Video tracking analysis software was used to determine total distance travelled in millimeters. Distance travelled was also calculated in 5-minute bins.
All statistical analyses were conducted using GraphPad Prism 9.3. Means were combined and standard error was calculated using the Satterthwaite Approximation to combined standard deviations. […] TD50 and TC50 values were calculated from these fit curves.

For data set [2], the system named is scPTZ-induced seizures in CD-1 mice. The data set is described as follows: Subcutaneous pentylenetetrazole (scPTZ) induced seizure test. In kind it is in vivo, mouse. As to the method:
The subcutaneous pentylenetetrazole (scPTZ) test is a validated model for evaluating the anti-seizure potential of compounds. The positive control valproate is an approved anti-seizure medicine (ASM). This study evaluated the efficacy of Compound 1 to attenuate scPTZ-induced seizures in wildtype CD-1 mice. Doses of Compound 1 used were 1 mg/kg, 3 mg/kg, 6 mg/kg and 10 mg/kg administered orally. Valproate (600 mg/kg, administered intraperitoneally) was used as a positive control as it has a broad spectrum of anticonvulsant activity.
Male CD-1 mice (Charles River Laboratories, St. Constant, Quebec, Canada) were used for the study. Body weights at the time the experiment was carried out were between 27 and 39 grams. The mice were group-housed in polycarbonate cages according to standard operating procedures. Animals were maintained on a 12 hour light/12 hour dark cycle, with all experimental activities occurring during the light phase. Food and water were available ad libitum. […]
Immediately prior to the administration of PTZ, a brief neurological assessment was performed. Each animal was visually assessed and received a score from 0 to 3 according to the following scoring system: neurological score of 0 corresponds to a normal status; neurological score of 1 corresponds to a modest decrease in spontaneous activity; neurological score of 2 corresponds to a marked decrease in spontaneous activity; and neurological score of 3 corresponds to loss of righting reflex.
PTZ (85 mg/kg, 10 mL/kg) was administered as a subcutaneous (s.c.) injection. […] The latency to generalized clonic seizure was recorded. Seizures were also scored using a seizure scale. Mice were scored with the following stages: 0) no seizure activity, 1) myoclonic jerks with “flat body posture”, 2) generalized clonus with loss of posture lasting ˜2 s, 3) generalized clonus with loss of posture lasting ˜10 s or 4) tonic hindlimb extension. Seizure scores were used as a qualitative measure to assess seizure incidence and were not used as a quantitative measure of pharmacological activity. […]

`CCOC(F)(F)c1nnc2ccc(-c3cnc(OCC(F)(F)F)c(F)c3)cn12` [Compound 1]: the “sedation or ataxia (in words)” value in data set [1] (3 mg/kg and 5.6 mg/kg) was “No sedation or ataxia was observed”. Besides, the “mice with sedation and/or ataxia” value in data set [1] (10 mg/kg) is “five”; in data set [1] (20 mg/kg) it was “eight”. Also, the “sLMA TD50” value in data set [1] (p.o., distance travelled) came to 10.4 mg/kg. Further, the “spontaneous activity (in words)” value in data set [2] (10 mg/kg) is on record as “modest reduction in spontaneous activity was observed in a single mouse”. In addition, the “protection in PTZ acute seizure model (in words)” value in data set [2] (1-10 mg/kg p.o.) is listed as “protected from generalized clonus”. Besides, in data set [2] (dose range tested), the “neurological scores (in words)” value is reported as “Neurological scores for all but one mouse treated with Compound 1 were normal”.

Values taken from patent US20250288570A1, “TREATMENT OF NEUROLOGICAL DISORDERS” (Praxis Precision Medicines, Inc., priority 2022, published 2025).
